Data: EPA's ToxRefDB 2

Experiments:
[1] = tested on: rat; conditions: Prenatal developmental toxicity study, wistar, Oral, Gavage/Intubation, dose end: 16 GD
[2] = tested on: mouse; conditions: Carcinogenicity, other, Oral, Feed, dose end: 98 week, group: systemic
[3] = tested on: rabbit; conditions: Prenatal developmental toxicity study, dutch, Oral, Gavage/Intubation, dose end: 18 GD
[4] = tested on: rat; conditions: Multigenerational reproductive toxicity study, wistar, Oral, Feed, dose end: 3 generation
[5] = tested on: mouse; conditions: Carcinogenicity, cd1, Oral, Feed, dose end: 100 week, group: systemic
[6] = tested on: dog; conditions: Subchronic oral toxicity in nonrodent, beagle, Capsule, dose end: 6 month, group: systemic, systemic / organ weight / liver / relative to body weight
[7] = tested on: dog; conditions: Chronic toxicity; beagle; Oral; Capsule; dose end: 52 week; group: systemic; systemic / clinical chemistry / alkaline phosphatase (alp/alk) / alkaline phosphatase (alp/alk) + systemic / organ weight / liver / nos + …
[8] = tested on: mouse; conditions: Carcinogenicity; cd1; Oral; Feed; dose end: 24 month; group: systemic; systemic / in life observation / clinical signs / anogenital staining + systemic / in life observation / clinical signs / distended abdomens…
[9] = tested on: rat; conditions: Combined chronic toxicity/carcinogenicity, wistar, Oral, Feed, dose end: 104 week, group: systemic
[10] = tested on: rat; conditions: Combined chronic toxicity/carcinogenicity, wistar, Oral, Feed, dose end: 2 year, group: systemic
[11] = tested on: rat; conditions: Subchronic oral toxicity in rodents, sprague dawley, Gavage/Intubation, dose end: 13 week, group: systemic
[12] = tested on: rat; conditions: Combined chronic toxicity/carcinogenicity, sprague dawley, Oral, Feed, dose end: 24 month, group: systemic
[13] = tested on: mouse; conditions: Carcinogenicity, cd1, Oral, Feed, dose end: 104 week, group: systemic
[14] = tested on: dog; conditions: Chronic toxicity, beagle, Oral, Feed, dose end: 24 month, group: systemic
[15] = group: developmental, developmental / developmental malformation / bone / short supernumerary + systemic / in life observation / body weight / fetal weight
[16] = group: maternal, systemic / in life observation / body weight / body weight gain + systemic / in life observation / clinical signs / headflicking + systemic…
[17] = systemic / hematology / platelet / platelet + systemic / organ weight / liver / relative to body weight + systemic / hematology / leukocyte…
[18] = systemic / organ weight / kidney / absolute + systemic / organ weight / kidney / relative to body weight
[19] = group: developmental, developmental / developmental malformation / bone / incomplete ossification + systemic / in life observation / body weight / fetal weight
[20] = group: maternal, systemic / in life observation / body weight / body weight gain
[21] = group: maternal, systemic / in life observation / body weight / body weight gain + systemic / in life observation / body weight / body weight
[22] = group: offspring, systemic / pathology microscopic / liver / hypertrophy
[23] = group: parental, systemic / in life observation / clinical signs / tremors
[24] = systemic / organ weight / liver / absolute
[25] = systemic / pathology gross / liver / mass + systemic / pathology gross / lung / mass + systemic / pathology microscopic / liver / …
[26] = systemic / in life observation / clinical signs / tremors + systemic / hematology / platelet / platelet + systemic / organ weight / kidney…
[27] = systemic / organ weight / kidney / nos + systemic / organ weight / liver / nos + systemic / clinical chemistry / aminopyrine-n-demethylase…
[28] = systemic / organ weight / heart / nos + systemic / organ weight / heart / relative to body weight
[29] = systemic / organ weight / heart / nos + systemic / organ weight / heart / relative to body weight + systemic / hematology / erythrocyte (rbc…
[30] = systemic / pathology microscopic / liver / eosinophilic focus
[31] = systemic / pathology microscopic / liver / adenoma + systemic / pathology microscopic / liver / adenoma/carcinoma combined + systemic / …
[32] = systemic / organ weight / thyroid gland / relative to body weight
[33] = systemic / organ weight / thyroid gland / relative to body weight + systemic / organ weight / liver / relative to body weight

## CC1(C)C(C=C(Cl)Cl)C1C(=O)OCc1cccc(Oc2ccccc2)c1 (stereo not drawn) [Permethrin]
[1]; [15]
  LEL: 150 mg/kg/day
  LOAEL: 150 mg/kg/day
  NEL: 50 mg/kg/day
  NOAEL: 50 mg/kg/day
[1]; [16]
  LEL: 150 mg/kg/day
  LOAEL: 150 mg/kg/day
  NEL: 50 mg/kg/day
  NOAEL: 50 mg/kg/day
[2]; [17]
  LOAEL: > 287 mg/kg/day
  NOAEL: ≥ 287 mg/kg/day
[2]; [18]
  LEL: 26.9 mg/kg/day
  NEL: < 26.9 mg/kg/day
[3]; group: developmental, developmental / developmental malformation / bone / incomplete ossification
  LOAEL: 1200 mg/kg/day
[3]; [19]
  LEL: 1200 mg/kg/day
  NEL: 600 mg/kg/day
  NOAEL: 600 mg/kg/day
[3]; [20]
  LOAEL: 600 mg/kg/day
  NOAEL: < 600 mg/kg/day
[3]; [21]
  LEL: 600 mg/kg/day
  NEL: < 600 mg/kg/day
[4]; [22]
  LEL: 25 mg/kg/day
  LOAEL: > 125 mg/kg/day
  NEL: < 25 mg/kg/day
  NOAEL: ≥ 125 mg/kg/day
[4]; [23]
  LEL: 125 mg/kg/day
  LOAEL: 125 mg/kg/day
  NEL: 50 mg/kg/day
  NOAEL: 50 mg/kg/day
[5]; [24]
  LOAEL: 807 mg/kg/day
  NOAEL: < 807 mg/kg/day
[5]; [25]
  LEL: 780 mg/kg/day
  NEL: < 780 mg/kg/day
[6]
  LEL: 50 mg/kg/day
  LOAEL: > 250 mg/kg/day
  NEL: 10 mg/kg/day
  NOAEL: ≥ 250 mg/kg/day
[7]
  LEL: 100 mg/kg/day
  LOAEL: 100 mg/kg/day
  NEL: 5 mg/kg/day
  NOAEL: 5 mg/kg/day
[8]
  LEL: 3 mg/kg/day
  LOAEL: > 714 mg/kg/day
  NEL: < 3 mg/kg/day
  NOAEL: ≥ 714 mg/kg/day
[9]; systemic / hematology / platelet / platelet + systemic / pathology microscopic / liver / hypertrophy + systemic / pathology microscopic / …
  LEL: 50 mg/kg/day
[9]; systemic / in life observation / clinical signs / tremors
  LOAEL: 250 mg/kg/day
[9]; [26]
  NEL: 10 mg/kg/day
  NOAEL: 50 mg/kg/day
[10]; systemic / in life observation / clinical signs / hypersensitivity + systemic / in life observation / clinical signs / tremors
  LOAEL: 91.5 mg/kg/day
[10]; systemic / in life observation / clinical signs / hypersensitivity + systemic / in life observation / clinical signs / tremors + systemic / …
  NOAEL: 36.9 mg/kg/day
[10]; [27]
  LEL: 19.4 mg/kg/day
  NEL: < 19.4 mg/kg/day

## O=C([O-])CF.[Na+] [Sodium fluoroacetate]
[11]; [28]
  NEL: 0.05 mg/kg/day
  NOAEL: 0.05 mg/kg/day
[11]; [29]
  LEL: 0.2 mg/kg/day
  LOAEL: 0.2 mg/kg/day

## Cc1[nH]c(=O)n(C(C)(C)C)c(=O)c1Cl [Terbacil]
[12]; systemic / organ weight / liver / absolute + systemic / organ weight / liver / relative to body weight + systemic / in life observation / …
  LOAEL: 83 mg/kg/day
[12]; systemic / organ weight / liver / absolute + systemic / organ weight / liver / relative to body weight + systemic / pathology microscopic / …
  NOAEL: 1.4 mg/kg/day
[12]; [30]
  LEL: 0.9 mg/kg/day
  NEL: < 0.9 mg/kg/day
[13]; [31]
  LEL: 7.2 mg/kg/day
  NEL: < 7.2 mg/kg/day
[13]; systemic / pathology microscopic / liver / hyperplastic nodule (pre-neoplastic)
  LOAEL: 1070 mg/kg/day
[13]; systemic / pathology microscopic / liver / hyperplastic nodule (pre-neoplastic) + systemic / pathology microscopic / liver / adenoma + …
  NOAEL: 179 mg/kg/day
[14]; [32]
  LEL: 6.25 mg/kg/day
  LOAEL: 6.25 mg/kg/day
[14]; [33]
  NEL: 1.25 mg/kg/day
  NOAEL: 1.25 mg/kg/day
